Experiments:
CLL cells on L4.5 stroma = assay: Apoptosis of CLL cells co-incubated 24 h on CD154+ L4.5 stromal cells; assay type: cell-based, human
Description: (§1) CLL cells were obtained from consented patients at the Norris Cotton Cancer Center. Cells were purified by centrifugation in Ficoll-Paque PLUS from 10 mL of blond. Lymphocytes were plated in RPMI 1640 plus 10% serum at 1×10^6 cells/mL after three washes in PBS+2 mmol/L EDTA. Cells were either incubated immediately with reagents or after 24 h incubation with confluent layers of CD154+ stromal cells (L 4.5) at a ratio of 5:1.
(§2) Cells were incubated for […] with 2 μg/mL Hoechst 33342 at 37° C. and visualized with a fluorescent microscope. At least 200 cells were scored for each sample. The percentage of cells with condensed chromatin was recorded.
The experiments above have shown that CLL cells are usually very sensitive to EX2. However, these cells were isolated from peripheral blood, and the real problem to curing CLL is to be able to kill cells that reside in the lymph node or bone marrow niche. To mimic this niche, we have used L4.5 cells that express CD154. Co-incubation of CLL cells on this stroma for 24 h elicits marked resistance to many drugs including the BCL-2 inhibitor ABT-199 (FIG. 7). […] However, when ABT-199 and EX2 were combined, marked apoptosis was again observed. For example, 100 nM ABT-199 alone induced about 10% apoptosis, whereas when combined with 1 μM EX2, >60% apoptosis was observed within 6 h. The combination of 1 μM EX2 and 1 μM ABT-199 induced about 80% apoptosis. […]

[1] = system: normal peripheral lymphocytes; assay: Toxicity to normal peripheral lymphocytes (PARP cleavage, chromatin condensation); assay type: cell-based, human; conditions: for PARP cleavage / apoptosis in normal peripheral lymphocytes: 0-1 μM EX2, 1-10 nM ABT-199 or 100 nM dinaciclib, each alone
Description: as §2
(§3) Cells were lysed in urea sample buffer [4 mol/L urea, 10% β-mercaptoethanol, 6% w/v SDS, 125 mmol/L Tris (pH 6.8), 0.01% w/v bromphenol blue, and protease/phosphatase inhibitor cocktail] and boiled for 5 min. Proteins were subsequently separated by SDS-PAGE (10 or 15% w/v) and transferred to polyvinylidene difluoride membrane (Millipore). Membranes were blocked with 5% w/v nonfat milk in TBS and 0.05% w/v Tween 20, and were probed with the appropriate primary antibody overnight. Subsequently, membranes were washed in TBS and 0.05% w/v Tween 20, and then incubated with secondary antibody conjugated to horseradish peroxidase. Proteins were visualized by enhanced chemiluminescence (Amersham). Actin was used as a loading control in Western blots.
To test the potential toxicity of EX2, normal peripheral lymphocytes were isolated from a healthy volunteer and incubated with EX2 alone or in combination with ABT-199.

hERG channel = hERG channel (Homo sapiens, UniProt Q12809); assay: hERG channel inhibition, in vitro testing; assay type: biochemical
Chain of hERG channel (Q12809 whole entry): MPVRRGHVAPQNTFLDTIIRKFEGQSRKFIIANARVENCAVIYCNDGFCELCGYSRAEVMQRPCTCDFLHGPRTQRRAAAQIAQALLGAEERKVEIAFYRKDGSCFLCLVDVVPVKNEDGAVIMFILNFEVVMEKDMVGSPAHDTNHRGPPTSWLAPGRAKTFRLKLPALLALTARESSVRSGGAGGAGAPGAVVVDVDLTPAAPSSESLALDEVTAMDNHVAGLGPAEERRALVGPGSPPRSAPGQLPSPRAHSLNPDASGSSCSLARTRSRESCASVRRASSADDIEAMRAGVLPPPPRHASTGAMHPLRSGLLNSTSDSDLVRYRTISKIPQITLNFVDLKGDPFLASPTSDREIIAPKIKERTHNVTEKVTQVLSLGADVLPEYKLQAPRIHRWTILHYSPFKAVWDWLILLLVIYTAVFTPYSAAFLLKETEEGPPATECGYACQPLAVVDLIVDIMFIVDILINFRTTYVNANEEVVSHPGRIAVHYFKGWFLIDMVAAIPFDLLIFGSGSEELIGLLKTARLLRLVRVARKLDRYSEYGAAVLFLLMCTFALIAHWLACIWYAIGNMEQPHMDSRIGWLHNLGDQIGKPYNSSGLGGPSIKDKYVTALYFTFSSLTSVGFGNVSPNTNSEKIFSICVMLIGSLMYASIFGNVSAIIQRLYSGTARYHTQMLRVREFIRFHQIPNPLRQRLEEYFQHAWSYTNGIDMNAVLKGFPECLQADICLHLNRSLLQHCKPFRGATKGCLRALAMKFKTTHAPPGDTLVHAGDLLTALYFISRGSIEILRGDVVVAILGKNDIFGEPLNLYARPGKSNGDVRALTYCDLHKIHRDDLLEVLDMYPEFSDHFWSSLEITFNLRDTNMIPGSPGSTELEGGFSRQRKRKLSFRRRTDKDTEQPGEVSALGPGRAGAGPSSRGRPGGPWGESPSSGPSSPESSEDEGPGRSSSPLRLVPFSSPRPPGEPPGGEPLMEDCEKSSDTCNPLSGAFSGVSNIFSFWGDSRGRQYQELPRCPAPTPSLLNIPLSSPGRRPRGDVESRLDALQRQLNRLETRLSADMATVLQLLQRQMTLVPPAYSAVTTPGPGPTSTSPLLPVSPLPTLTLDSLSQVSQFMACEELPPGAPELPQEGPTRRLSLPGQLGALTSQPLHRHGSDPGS
From the text: (§4) Signs of cardiomyopathy were decreased in severity and incidence by 14 days after the 2-cycles of treatment, indicating recovery or reversibility of the effects. The implications of these findings for humans are not clear as these cardiovascular effects were not observed in dog toxicity studies. […] Thus an effect on the hERG channel is expected to be slight, if any, at efficacious doses of Example 2.

CLL cells [2] = assay: Chromatin condensation (Hoechst 33342) apoptosis scoring in freshly isolated CLL cells; assay type: cell-based, human
Description: as §1, §2

CLL cells [3] = assay: Immunoblot analysis (PARP cleavage, pJNK, Noxa) in CLL cells; assay type: cell-based, human
Description: as §1, §3

Jeko-1 cells = assay: Kinetics of apoptosis in Jeko-1 cells (Western blots); assay type: cell-based; conditions: 20 nM EX2 (FIG. 6)
Description: FIG. 6: Kinetics of compounds of Formula (I) induced apoptosis in Jeko-1 cells. Western blots of Jeko-1 cells incubated with 20 nM compounds of Formula (I). “C”=a control cell line incubated with 2 μM vinblastine as a positive control for protein expression.
as §3

[4] = Dog toxicity studies, cardiovascular effects; assay type: in vivo; conditions: dogs
From the text: as §4

[5] = Cardiovascular safety pharmacology study in telemetered dogs; assay type: in vivo, dog; conditions: doses up to 0.8 mg/kg (highest dose assessed)
From the text: as §4

[6] = 2-cycle rat toxicity study; assay type: in vivo; conditions: rats, 2 cycles; decreased in severity and incidence by 14 days after treatment
From the text: as §4

advanced solid tumors = assay: Phase I study of Example 2 in subjects with advanced solid tumors; assay type: in vivo, human
Description: (§5) The recommended Phase 2 dose (RP2D) of Example 2 is evaluated in subjects with advanced solid tumors. Dosing is at a level of 2.1 mg/m^2. The dose of 16 mg/m^2 is deemed to be an MTD. In this study, adverse events are seen across all dose groups. The two most common categories of AE's are gastrointestinal disorders (nausea, vomiting, constipation) and general disorders (predominantly fatigue). Disorders related to bone marrow suppression are rare. Anemia is reported in one patient at a dose level of 8.4 mg/m^2 and in two patients at a dose level of 18.9 mg/m^2. […] Similarly, in a phase 11 study of Example 2 in patients with malignant pleural mesothelioma grade 1-2 gastrointestinal and general disorders are the predominant AE's: in 87% and 50% of patients correspondingly. Grade 3 fatigue is observed in 8% of patients. Finally, grade 1-2 anemia is reported in 33% of study participants.
Thus, this study employs 8 mg/m^2 iv on days 1 and 8 (cycle 1) or 8 and 15 (cycles 2-6) of a 21-day cycle as a starting dose of Example 2. This dose corresponds to a dose one tier below that sufficient to induce disruption of microtubules, yet also is lower than the currently established MTD in a Phase I study of Example 2 in patients with solid tumors. […] The study follows a standard 3+3 Phase I design (between 3 and 6 patients are enrolled at each dose tier). The dose of the drug is escalated to 16 mg/m^2, toxicities permitting. If toxicities emerge at dose level 1, the dose of Example 2 is de-escalated to 4 mg/m^2. […] Preliminary assessment of response and pharmacodynamic endpoints of treatment with Example 2 is assessed at several dose levels allowing for more careful selection of RP2D in CLL.

[7] = system: malignant pleural mesothelioma; assay: Phase II study of Example 2 in patients with malignant pleural mesothelioma; assay type: in vivo, human
Description: as §5

microtubules in PBMCs = assay: Disruption of microtubules in PBMCs of dosed subjects; assay type: in vivo, human; conditions: doses of 12.6 and 16 mg/m^2
[8] = healthy volunteer, 6 h, 0-1 μM EX2

**Q.** Which results are given for `CC1(C)CCC(CN2CCN(c3ccc(C(=O)NS(=O)(=O)c4ccc(NCC5CCOCC5)c([N+](=O)[O-])c4)c(Oc4cnc5[nH]ccc5c4)c3)CC2)=C(c2ccc(Cl)cc2)C1` [ABT-199, reference compound]?
**A.** apoptosis (CLL cells on L4.5 stroma; 100 nM ABT-199 alone, CLL cells on stroma, 6 h): about 10%; chromatin condensation in normal peripheral lymphocytes ([1]; ABT-199 1-10 nM with or without EX2, 6 h): no chromatin condensation was observed; PARP cleavage / apoptosis in normal peripheral lymphocytes ([1]; healthy volunteer, 6 h): slight PARP cleavage

**Q.** For `CCc1cnn2c(NCc3ccc[n+]([O-])c3)cc(N3CCCC[C@H]3CCO)nc12` [Dinaciclib, reference compound], which “PARP cleavage / apoptosis in normal peripheral lymphocytes” value ([1]; healthy volunteer, 6 h) is on record?
**A.** some apoptosis

**Q.** Which IC50 (hERG channel) does the source give for `COc1cc(C(=O)c2c(C)oc3c(O)c(OC)ccc23)cc(OC)c1OC` [Example 1, 2-Methyl-7-hydroxy-3-(3,4,5-trimethoxybenzoyl)-6-methoxybenzofuran] here?
**A.** > 6.71 µM

**Q.** For `COc1cc(C(=O)c2c(C)oc3c(OP(=O)([O-])[O-])c(OC)ccc23)cc(OC)c1OC.[Na+].[Na+]` [Example 2, Disodium 6-methoxy-2-methyl-3-(3,4,5-trimethoxybenzoyl)benzofuran-7-yl phosphate], which “potency as inducer of apoptosis compared with vinblastine and combretastatin A4” value (CLL cells [2]; chromatin condensation and PARP cleavage, 6 h, 3-6 patients) is on record?
**A.** more potent inducer of apoptosis

**Q.** What about the “concentration at which apoptosis (chromatin condensation) was observed” value (CLL cells [2]; freshly isolated CLL cells, media with 0-1 μM EX2, 6 h (FIG. 1)) of the same compound?
**A.** 10 to 100 nM

**Q.** And the “PARP cleavage in presence of JNK inhibitor VIII” value (CLL cells [3]; 0-1 μM EX2, 6 h, with JNK inhibitor VIII)?
**A.** completely prevented

**Q.** And the “PARP cleavage by 24 h” value (CLL cells [3]; 20 nM, patient 114, incubated up to 24 h (FIG. 5))?
**A.** almost total cleavage of PARP

**Q.** What about the “JNK activation and PARP cleavage five hours after removing EX2” value (CLL cells [3]; 1 h pulse treatment, then 5 h without EX2, versus continuous incubation) of the same compound?
**A.** still observed albeit slightly less

**Q.** And the “concentration at which apoptosis, pJNK and Noxa expression began to appear” value (CLL cells [3]; 6 h, patient 49 (FIG. 2A))?
**A.** 5 nM

**Q.** And the “time to activation of JNK” value (CLL cells [3]; CLL cells incubated with EX2)?
**A.** less than one hour

**Q.** And the “pJNK and NOXA in protein lysates” value (CLL cells [3]; same concentrations of EX2 (10-100 nM), 6 h)?
**A.** increased

**Q.** What about the “time by which apoptosis was complete” value (Jeko-1 cells) of the same compound?
**A.** up to 24 h

**Q.** What about the “apoptosis of co-cultured CLL cells, EX2 alone” value (CLL cells on L4.5 stroma; 1 μM EX2, 24 h on L4.5 stroma then 6 h drug) of the same compound?
**A.** no apoptosis observed

**Q.** What about the “Noxa induction in normal peripheral lymphocytes” value [1, 8] of the same compound?
**A.** no Noxa was induced

**Q.** And the “pJNK in normal peripheral lymphocytes” value [1, 8]?
**A.** activated

**Q.** What about the “PARP cleavage / apoptosis in normal peripheral lymphocytes” value ([1]; healthy volunteer, 6 h) of the same compound?
**A.** no significant PARP cleavage or chromatin condensation

**Q.** And the IC50 (hERG channel)?
**A.** > 979 µM

**Q.** And the “effects on the cardiovascular system” value [4]?
**A.** no effects on the cardiovascular system

**Q.** And the “effects on cardiovascular or respiratory function” value [5]?
**A.** no effects on cardiovascular or respiratory function

**Q.** What about the cardiac finding [6] of the same compound?
**A.** dose-dependent, reversible cardiomyopathy

**Q.** What about the “anemia, patients reported” value (advanced solid tumors; dose level 8.4 mg/m^2) of the same compound?
**A.** one patient

**Q.** And the “anemia, patients reported” value (advanced solid tumors; dose level 18.9 mg/m^2)?
**A.** two patients

**Q.** What about the “grade 4 events” value (advanced solid tumors; dose level 18.9 mg/m^2, same subject) of the same compound?
**A.** Two grade 4 events (myocardial infarction and peripheral neuropathy)

**Q.** And the MTD (advanced solid tumors; subjects with advanced solid tumors)?
**A.** 16 mg/m^2

**Q.** What about the “Grade 3 fatigue, patients” value [7] of the same compound?
**A.** 8%

**Q.** What about the “grade 1-2 anemia, study participants” value [7] of the same compound?
**A.** 33%

**Q.** And the “grade 1-2 gastrointestinal disorders, patients” value [7]?
**A.** 87%

**Q.** And the “grade 1-2 general disorders, patients” value [7]?
**A.** 50%

**Q.** What about the “effect on microtubules in PBMCs” value (microtubules in PBMCs) of the same compound?
**A.** briefly disrupt microtubules
